Data from patent publication US5571806A, “Dibenz[b,f][1,4]oxazepin(and thiazepin)-11(10H)-ones and-thiones and their use in the prevention or treatment of HIV infection” (Boehringer Ingelheim Pharmaceuticals, Inc., priority 1994, dated 1996).
Where two headings read alike, the source gives them in different places.

How the values were obtained:
[1] = molecular target: T1, HIV-1 reverse transcriptase (Human immunodeficiency virus type 1 group M subtype B, UniProt P03367); experiment: Reverse Transcriptase (RT) Assay (RNA-dependent DNA polymerase activity); type: biochemical, Human Immunodeficiency Virus (HIV-1), LAV strain; settings: read-out: RT Inhibition (% @ 10 μg/ml)
T1 construct: Reverse transcriptase enzyme from the LAV strain of Human Immuno-deficiencyVirus (HIV-1); made in house; host or cells: E. coli JM109 (species of the strain is own knowledge), DNA clone pBRTprtl+ in expression vector pIBI21 (lac promoter)
Description: As stated before, the compounds of formula I inhibit the enzymatic activity of HIV-1 RT. Based upon testing of these compounds, as described below, it is known that they inhibit the RNA-dependent DNA polymerase activity of HIV RT.
Utilizing the Reverse Transcriptase (RT) Assay described below, compounds can be tested for their ability to inhibit the RNA-dependent DNA polymerase activity of HIV RT. Certain specific compounds, described in the Examples which appear below, were so tested.
Among the enzymes for which Human Immunodeficiency Virus (HIV-1) encodes is a reverse transcriptase (1), so-named because it transcribes a DNA copy from an RNA template. This activity can be quantitatively measured in a cell-free enzyme assay which has been previously described (2), and is based upon the observation that reverse transcriptase is able to use a synthetic template [poly r(C) primed with oligo d(G)] to transcribe a radio-labelled, acid-precipitable DNA strand utilizing ^3 H-dGTP as a substrate. […]
a) Preparation of the enzyme
Reverse transcriptase enzyme from the LAV strain of Human Immuno-deficiencyVirus (HIV-1) (1) was isolated from the bacterial strain JM109 (3) expressing the DNA clone pBRTprtl+(2) which is under the control of the lac promotor in the expression vector pIBI21 (4). An overnight culture grown in 2XYT medium (37° C., 225 rpm) (5) supplemented with […] ampicillin for positive selection is inoculated at a 1:40 dilution into M9 medium supplemented with 10 mg/ml thiamine, 0.5% casamino acids, and […] ampicillin (5). The culture is incubated (37° C., 225 rpm) until it reaches an OD540 of 0.3-0.4. At that time the repressor inhibitor IPTG (isopropyl b-D-thiogalactopyranoside) is added to 0.5 mM and incubated for 2 additional hours. Bacteria are pelletted, resuspended in a 50 mM Tris, 0.6 mM EDTA, 0.375M NaCl buffer and digested by the addition of lysozyme (1 mg/ml) for 30 minutes on ice. The cells are lysed by the addition to 0.2% NP-40 and brought to 1M NaCl.
After removal of the insoluble debris by centrifugation, the protein is precipitated by the addition of 3 volumes of saturated aqueous ammonium sulfate. The enzyme is pelleted, resuspended in RT buffer (50 mM Tris pH 7.5, 1 mM EDTA, 5 mMDTT, 0.1% NP-40, 0.1M NaCl, and 50% glycerol) and stored at -70° C. for further use. […]
b) Composition of 2X concentrated stock reaction mixture
Stock Reagent 2X Mix Concentration
[poly r(C)/oligo d(G)](5:1)
The 2X concentrated stock reaction mixture is aliquoted and stored at -20° C. The mixture is stable and thawed for use in each assay. This enzyme assay has been adapted to a 96 well microtiter plate system, and has been previously described (6). Tris buffer (50 mM, pH 7.4), vehicle (solvent diluted to match the compound dilution), or compounds in vehicle are dispensed into 96-well microtiter plates (10 μl/well; 3 wells/compound). The HIV RT enzyme is thawed, diluted in 50 mM Tris pH 7.4 so that fifteen μl of diluted enzyme contain 0.001 Unit (one unit is that amount of enzyme to transform 1 micromole of substrate per minute at 25° C.), and 15 μl are dispensed per well. Twenty μl of 0.12-0.5M EDTA are added to the first three wells of the microtiter plate. EDTA chelates the Mg^++ present and prevents reverse transcription. This group serves as background polymerization which is subtracted from all other groups. Twenty-five μl of the 2X reaction mixture are added to all wells and the assay is allowed to incubate at room temperature for 60 minutes. The assay is terminated by precipitating the DNA in each well with 50μl of 10% trichloracetic acid (TCA) in 1% sodium pyrophosphate. The microtiter plate is incubated for 15 minutes at 4° C. and the precipitate is fixed onto #30 glass fiber paper (Schleicher & Schuell) using a Skatron semi-automatic harvester. […]

[2] = system: HIV-1; experiment: Human T Cell Culture Assay (HIV-1 induced syncytia formation in C8166 cells); type: cell-based, HIV-1 HTLV-IIIB strain (human C8166 T-cells); settings: HTLV-IIIB, four days after virus challenge, compound concentration not given
Description: In order to confirm that compounds which are active in the RT Assay also have the ability to inhibit HIV replication in a living system, a compound of formula I was also tested in the human T-Cell Culture Assay described below.
Assay Theory: Formation of syncytia is a feature of in vitro cultures of CD4+ T-cells infected with HIV-1. In this assay, T-cells are treated with a putative replication inhibiting compound and then infected with HIV-1. After incubation the culture is checked for the formation of syncytia. The absence or reduction is the number of syncytia is used as a measure of the test compound's ability to inhibit HIV replication.
Assay Method: The target cells, designated C8166, are a subclone of human lymphoma cells of T-cell origin and are established at an initial density of 5×10^4 per 100 μl in RPMI 1640 (+10% fetal bovine serum) culture medium in 96 well flat bottom plates. A selected amount of test compound, dissolved in DMSO is included. After 24 hours, 50-100 TCID50 's (the dose that results in induced effect in 50% of test cultures) of the HTLV-IIIB strain of HIV-1 (2) are innoculated into each culture. Control cultures receive compound or virus only. […] The percent inhibition by the test compound is determined by comparison with control values. […]

[3] = 10 μg/ml, poly r(C)/oligo d(G) template, 60 minutes, room temperature

Compound	inhibition at 10 µg/mL [1, 3] [%]	further results
O=C1Nc2ccccc2Sc2ccccc21 [Example 4, Dibenz[b,f][1,4]Thiazepin-11(10H)-One]	43	–
Cc1ccc2c(c1)Oc1ccc(N)cc1C(=O)N2 [Example 30]	96	–
O=C1c2ccccc2Oc2ccccc2N1CC(F)(F)F [Example 48]	87	–
Nc1ccc2c(c1)C(=O)Nc1ccccc1O2 [Example 14]	85	–
CN1C(=O)c2cc(N)ccc2Oc2ccccc21 [Example 22]	99	–
COc1ccc2c(c1)Oc1cccc(OC)c1C(=O)N2 [Example 45]	44	–
Nc1ccc2c(c1)C(=O)Nc1cc(Cl)ccc1O2 [Example 17]	67	–
CCCN1C(=O)c2ccccc2Sc2ccccc21 [Example 5, 10-n-Propyl-Dibenz[b,f][1.4]Thiazepin-11(10H)-One]	98	–
Cc1ccc2c(c1)Oc1ccc(N)cc1C(=O)N2C [Example 6, 2-Amino-7,10-Dimethyldibenz[b,f][1,4]Oxazepin-11(10H)-One]	–	inhibition at 10 µg/mL [1]: 100%
C=CCN1C(=O)c2ccccc2Oc2cc(N)ccc21 [Example 29]	–	inhibition at 10 µg/mL [1]: 89%
CSCCN1C(=O)c2ccccc2Oc2cc(C)ccc21 [Example 39]	95	–
CNc1ccc2c(c1)C(=O)N(C)c1ccccc1O2 [Example 26]	75	–
Cc1ccc2c(c1)NC(=O)c1cc(N)ccc1O2 [Example 18]	71	–
CN1C(=O)c2ccccc2Oc2cc(N)ccc21 [Example 24]	44	–
O=C1c2ccccc2Oc2ccccc2N1C(F)=CI [Example 47]	92	–
Cc1ccc2c(c1)Oc1ccccc1C(=O)N2C[S+](C)[O-] (stereo not drawn) [Example 40]	77	–
Cc1ccc2c(c1)Oc1ccccc1C(=O)N2CC(N)=O [Example 31]	77	–
CN1C(=O)c2ccccc2Sc2ccccc21 [Example 49]	94	–
C=CCN1C(=O)c2ccccc2Oc2ccccc21 [Example 9]	98	–
COc1cccc2c1Oc1ccccc1N(CC(N)=O)C2=O [Example 13]	32	–
CCCN1C(=S)c2ccccc2Oc2ccccc21 [Example 3, 10 -Propyl-10H-Dibenz [b,f][1,4]Oxazepin-11-Thione]	94	–
CCOc1ccc2c(c1)Oc1ccccc1C(=O)N2 [Example 42]	30	–
CCN1C(=O)c2cc(N)ccc2Oc2ccc(Cl)cc21 [Example 20]	95	–
Nc1ccc2c(c1)Oc1ccccc1C(=O)N2 [Example 21]	3	–
O=C1c2ccccc2Oc2ccccc2N1CCF [Example 46]	93	–

Compound	inhibition at 10 µg/mL [1, 3] [%]	further results
CCOC(=O)CN1C(=O)c2ccccc2Oc2ccccc21 [Example 43]	76	–
CCN1C(=O)c2ccccc2Oc2ccccc21 [Example 8]	100	–
CSCCN1C(=O)c2ccccc2Oc2ccccc21 [Example 36]	85	–
CC(C)N1C(=O)c2ccccc2Oc2ccccc21 [Example 2, 10-Isopropyl-10H-Dibenz[b,f][1,4]Oxazepin-11-One]	100	–
CCN1C(=O)c2cc(N)ccc2Oc2ccccc21 [Example 16]	100	–
CCN1C(=O)c2cc(N)ccc2Oc2ccc(C)cc21 [Example 19]	100	–
Nc1ccc2c(c1)Oc1ccccc1NC2=O [Example 23]	25	–
O=C1Nc2ccccc2Oc2ccccc21 [Example 7]	22	–
C=CCN1C(=O)c2cc(N)ccc2Oc2ccccc21 [Example 27]	100	–
CCOc1ccc2c(c1)Oc1ccccc1C(=O)N2CC [Example 33]	74	–
C[S+]([O-])CN1C(=O)c2ccccc2Oc2ccccc21 (stereo not drawn) [Example 35]	58	–
CCC(=O)N1C(=O)c2ccccc2Oc2ccccc21 [Example 12]	44	–
CNc1ccc2c(c1)C(=O)Nc1ccccc1O2 [Example 28]	30	–
CSCN1C(=O)c2ccccc2Oc2ccccc21 [Example 34]	100	–
COc1ccc2c(c1)Oc1ccccc1C(=O)N2 [Example 44]	27	–
CSCCN1C(=O)c2ccc(Cl)cc2Oc2ccccc21 [Example 38]	83	–
C=C(C)CN1C(=O)c2ccccc2Oc2ccccc21 [Example 11]	77	–
CN1C(=O)c2ccccc2Oc2ccccc21 [Example 10]	93	–
NC(=O)CN1C(=O)c2ccccc2Sc2ccccc21 [Example 50]	66	–
CN1C(=O)c2ccc(N)cc2Oc2ccccc21 [Example 25]	26	–
CCOc1ccc2c(c1)Oc1ccccc1C(=O)N2C [Example 32]	77	–
NC(=O)CN1C(=O)c2cc(N)ccc2Oc2ccccc21 [Example 15]	82	–
CCCN1C(=O)c2ccccc2Oc2ccccc21 [Example 1, 10-Propyl-10H-Dibenz[b,f][1,4]Oxazepin-11-One]	100	T-Cell Culture Assay (% inhibition) [2]: 93%
CSCCN1C(=O)c2cc(Cl)ccc2Oc2ccccc21 [Example 41]	49	–
CSCN1C(=O)c2ccc(Cl)cc2Oc2ccccc21 [Example 37]	98	–
